The text below walks through data of PMC7004140, “In vitro hepatotoxicity of Petasites hybridus extract (Ze 339) depends on the concentration, the cytochrome activity of the cell system, and the species used” (Phytotherapy Research, 2019).

Format in all cases: in vitro ADME
Common to all, as to conditions: petasins 20 μM, 60 min

In one series the target is T1, CYP1A2 (rat) (Rattus norvegicus, UniProt P04799).
T1 construct: purchased BD Gentest (Switzerland); host or cells: baculovirus expression system
T1 sequence (P04799 1-513): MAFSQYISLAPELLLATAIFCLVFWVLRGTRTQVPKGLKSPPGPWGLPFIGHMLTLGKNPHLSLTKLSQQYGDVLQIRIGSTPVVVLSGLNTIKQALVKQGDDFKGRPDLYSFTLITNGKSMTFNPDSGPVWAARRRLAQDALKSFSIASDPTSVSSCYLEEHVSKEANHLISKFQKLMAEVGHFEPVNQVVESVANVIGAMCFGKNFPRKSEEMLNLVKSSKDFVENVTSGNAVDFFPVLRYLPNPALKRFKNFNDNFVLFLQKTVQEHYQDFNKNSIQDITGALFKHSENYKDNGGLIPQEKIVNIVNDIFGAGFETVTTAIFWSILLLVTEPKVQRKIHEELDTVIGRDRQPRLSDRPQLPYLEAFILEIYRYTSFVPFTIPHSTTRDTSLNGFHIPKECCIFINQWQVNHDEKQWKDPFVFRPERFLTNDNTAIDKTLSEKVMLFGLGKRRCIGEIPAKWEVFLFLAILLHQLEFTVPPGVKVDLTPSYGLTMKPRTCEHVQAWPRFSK
The series can be described thus: Metabolism by isolated rat CYP1A2. From the text:
(§1) The metabolism of petasin, isopetasin, and neopetasin was investigated using three different S9 fractions originating from three different species (isolated from rat, dog, and human liver homogenates containing cytochrome P450 isoforms) and isolated cytochromes of two different species (human and rat; rat analogues of the respective human cytochromes were used). For the expression of the different cytochromes, a baculovirus expression system was used according to supplier's manual. The S9 fractions or respectively single P450 cytochromes were used to mimic the liver metabolism by in vitro incubation.
(§2) The assay was carried out in triplicate in 1.5 ml glass vials with a final concentration of 20 μM of petasin, isopetasin, and neopetasin. The incubation was performed in a 37°C warm water bath. S9 fractions were thawed slowly on ice. […]
(§3) A mixture of NADPH regeneration systems A (20‐fold) and B (100‐fold), phosphate buffer, and H2O was added, preincubated at 37°C, and shaken gently for 5 min. […] The supernatant was transferred to high‐performance liquid chromatography vials and analyzed by ultra‐performance liquid chromatography mass spectrometry (UPLC/MS). […]

A further series deals with T2, CYP2C11 (rat) (Rattus norvegicus, UniProt P08683).
T2 construct: purchased BD Gentest (Switzerland); host or cells: baculovirus expression system
T2 sequence (P08683 1-500): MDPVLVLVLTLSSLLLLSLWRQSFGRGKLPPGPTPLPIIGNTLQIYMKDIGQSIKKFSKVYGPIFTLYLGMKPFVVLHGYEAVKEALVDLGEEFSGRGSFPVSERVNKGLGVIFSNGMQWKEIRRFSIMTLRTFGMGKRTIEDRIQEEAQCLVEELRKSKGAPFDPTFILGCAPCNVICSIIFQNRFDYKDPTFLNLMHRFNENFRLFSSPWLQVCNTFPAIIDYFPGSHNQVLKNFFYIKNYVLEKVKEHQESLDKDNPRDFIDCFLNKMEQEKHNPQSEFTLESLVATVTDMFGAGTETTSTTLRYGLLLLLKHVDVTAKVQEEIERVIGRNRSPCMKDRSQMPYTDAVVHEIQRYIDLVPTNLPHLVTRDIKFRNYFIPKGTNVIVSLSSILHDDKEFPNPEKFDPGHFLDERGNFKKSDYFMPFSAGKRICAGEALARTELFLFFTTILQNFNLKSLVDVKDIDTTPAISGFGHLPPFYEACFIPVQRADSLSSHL
The series can be described thus: Metabolism by isolated rat CYP2C11.
Excerpt: as §1
The assay was carried out in triplicate in 1.5 ml glass vials with a final concentration of 20 μM of petasin, isopetasin, and neopetasin. The incubation was performed in a 37°C warm water bath. S9 fractions were thawed slowly on ice. Four different approaches were pursued by testing: (a) petasin, neopetasin, and isopetasin before (0 min) and after 60 min incubations with S9 fraction; (b) petasin, neopetasin, and isopetasin without S9 fraction after 60 min incubation; (c) vehicle as negative controls; and (d) cofactors of S9 fraction after 60‐min incubation.
A mixture of NADPH regeneration systems A (20‐fold) and B (100‐fold), phosphate buffer, and H2O was added, preincubated at 37°C, and shaken gently for 5 min. Afterwards, the recommended amount between 10 and 40 pmol/ml of enzyme or enzyme mixture was added according to manufacturer's instruction and incubated for further 60 min at 37°C and gently shaken. Afterwards, the reactions were stopped by addition of acetonitrile (400 μl). For the control sample, acetonitrile was added at 0 min incubation. The samples were centrifuged for 3 min at 10,000 × g. The supernatant was transferred to high‐performance liquid chromatography vials and analyzed by ultra‐performance liquid chromatography mass spectrometry (UPLC/MS). The UPLC analysis was performed with an UPLC Acquity H Class from Waters (Waters Corporation, Switzerland) including a quaternary high‐pressure gradient pump, an automatic sample injector, and a column thermostat. […]

The next series has as its target T3, CYP3A2 (rat) (Rattus norvegicus, UniProt P05183).
T3 construct: purchased BD Gentest (Switzerland); host or cells: baculovirus expression system
T3 sequence (P05183 1-504): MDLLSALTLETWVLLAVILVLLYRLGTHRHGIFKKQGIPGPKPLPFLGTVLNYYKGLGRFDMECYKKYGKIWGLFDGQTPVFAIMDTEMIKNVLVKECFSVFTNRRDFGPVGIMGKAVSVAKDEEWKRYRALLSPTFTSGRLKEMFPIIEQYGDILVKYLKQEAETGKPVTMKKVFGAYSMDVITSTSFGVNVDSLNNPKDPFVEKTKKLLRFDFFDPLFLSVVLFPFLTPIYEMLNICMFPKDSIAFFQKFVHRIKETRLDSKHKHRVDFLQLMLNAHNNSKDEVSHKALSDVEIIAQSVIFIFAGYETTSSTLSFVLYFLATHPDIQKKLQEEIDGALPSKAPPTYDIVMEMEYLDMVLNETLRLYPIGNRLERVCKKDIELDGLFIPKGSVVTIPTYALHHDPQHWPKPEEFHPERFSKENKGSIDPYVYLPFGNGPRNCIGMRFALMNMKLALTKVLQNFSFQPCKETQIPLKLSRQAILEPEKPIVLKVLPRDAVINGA
The series can be described thus: Metabolism by isolated rat CYP3A2.
Excerpt: as §1, §2, §3

For the molecule `C/C=C(/C)C(=O)O[C@@H]1CCC2=CC(=O)C(=C(C)C)C[C@]2(C)[C@H]1C` [isopetasin], at CYP1A2 (rat), the “extent of metabolism by CYP1A2 (rat)” value is given as < 1%. On CYP2C11 (rat), the “extent of metabolism by CYP2C11 (rat)” value came out at 84%. For the same molecule, the “extent of metabolism by CYP3A2 (rat)” value on CYP3A2 (rat) was 73%.
On to `C=C(C)[C@H]1C[C@@]2(C)C(=CC1=O)CC[C@@H](OC(=O)/C(C)=C\C)[C@@H]2C` [neopetasin], for which the “extent of metabolism by CYP2C11 (rat)” value at CYP2C11 (rat) worked out at 74%. Besides, the “extent of metabolism by CYP3A2 (rat)” value at CYP3A2 (rat) is listed as 46%.
Regarding `C=C(C)[C@@H]1C[C@@]2(C)C(=CC1=O)CC[C@@H](OC(=O)/C(C)=C\C)[C@@H]2C` [petasin], at CYP1A2 (rat), the “extent of metabolism by CYP1A2 (rat)” value is given as 43%. For the same molecule, the “extent of metabolism by CYP2C11 (rat)” value on CYP2C11 (rat) is on record as 55%.
